In PubChem BioAssay (NCI):
Values joined by “and” are separate entries in the source; they are usually repeats but may differ in a detail not shown here. Equal entries are not always repeated.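 Cells were grown in 96-well plates and exposed to each compound for 48 hours at five concentrations; endpoints were interpolated linearly between bracketing concentrations, or set to the highest concentration if not reached. GI50 = concentration required for 50% inhibition of growth. TGI: total growth inhibition.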

Assays:
Assay in all cases: growth of human tumour cells (NCI), 48 h
A498 renal = test system: A498 renal
EKVX NSCLC = test system: EKVX NSCLC
HS 578T breast = test system: HS 578T breast
HT29 colon = test system: HT29 colon
LOX IMVI melanoma = test system: LOX IMVI melanoma
MALME-3M melanoma = test system: MALME-3M melanoma
NCI-H23 lung = test system: NCI-H23 lung
OVCAR-4 ovarian = test system: OVCAR-4 ovarian
SF-268 CNS = test system: SF-268 CNS
SR leukemia = test system: SR leukemia

Question: What does the source list for `C[N+]1=C(/C=C\C=C\c2ccccc2)C(C)(C)c2ccccc21`?
Answer: GI50 (A498 renal): 3.08 µM; TGI (A498 renal): 11.3 µM; GI50 (EKVX NSCLC): 2.42 µM; TGI (EKVX NSCLC): 14.4 µM; GI50 (HS 578T breast): 4.6 µM; TGI (HS 578T breast): 22.4 µM; GI50 (HT29 colon): 2.6 µM; TGI (HT29 colon): 9.09 µM; GI50 (LOX IMVI melanoma): 1.31 µM; TGI (LOX IMVI melanoma): 2.7 µM; GI50 (MALME-3M melanoma): 1.87 µM; TGI (MALME-3M melanoma): 4.37 µM; GI50 (NCI-H23 lung): 2.83 µM; TGI (NCI-H23 lung): 11.5 µM; GI50 (OVCAR-4 ovarian): 2.69 µM; TGI (OVCAR-4 ovarian): 13.8 µM; GI50 (SF-268 CNS): 3.33 µM; TGI (SF-268 CNS): 12.1 µM; GI50 (SR leukemia): 0.925 µM; TGI (SR leukemia): 4.31 µM

Question: What does the source list for `CN(Cc1cc(C(C)(C)C)cc(Br)c1O)Cc1cc(C(C)(C)C)cc(Br)c1O`?
Answer: TGI (A498 renal): 8.93 µM; TGI (EKVX NSCLC): 12.7 µM; TGI (HS 578T breast): 7.65 µM; TGI (HT29 colon): 15.9 µM; TGI (LOX IMVI melanoma): 14.8 µM; TGI (MALME-3M melanoma): 13.7 µM; TGI (NCI-H23 lung): 9.88 µM; TGI (OVCAR-4 ovarian): 17.8 µM; TGI (SF-268 CNS): 11.2 µM; TGI (SR leukemia): 12.2 µM

Question: `Cc1cc(N2CCOCC2)cc2[nH]c(-c3c(NC[C@@H](O)c4cccc(Cl)c4)cc[nH]c3=O)nc12` was tested. Which GI50 (A498 renal) did it give?
Answer: 0.35 µM

Question: And the TGI (A498 renal)?
Answer: 1.15 µM

Question: And the GI50 (EKVX NSCLC)?
Answer: 1.62 µM

Question: And the TGI (EKVX NSCLC)?
Answer: 29.1 µM

Question: And the GI50 (HS 578T breast)?
Answer: 1.04 µM

Question: And the TGI (HS 578T breast)?
Answer: 4.42 µM

Question: What about the GI50 (HT29 colon) of the same compound?
Answer: 0.0672 µM

Question: What about the TGI (HT29 colon) of the same compound?
Answer: 1.81 µM

Question: What about the GI50 (LOX IMVI melanoma) of the same compound?
Answer: 0.387 µM

Question: And the TGI (LOX IMVI melanoma)?
Answer: 2.19 µM

Question: And the GI50 (MALME-3M melanoma)?
Answer: 1.68 µM

Question: And the TGI (MALME-3M melanoma)?
Answer: 14.8 µM

Question: What about the GI50 (NCI-H23 lung) of the same compound?
Answer: 1.29 µM

Question: What about the TGI (NCI-H23 lung) of the same compound?
Answer: 11.3 µM

Question: What about the GI50 (OVCAR-4 ovarian) of the same compound?
Answer: 4.21 µM

Question: What about the TGI (OVCAR-4 ovarian) of the same compound?
Answer: 40.4 µM

Question: And the GI50 (SF-268 CNS)?
Answer: 2.06 µM

Question: What about the TGI (SF-268 CNS) of the same compound?
Answer: 7.63 µM

Question: What about the GI50 (SR leukemia) of the same compound?
Answer: 0.295 µM

Question: And the TGI (SR leukemia)?
Answer: 5.06 µM

Question: Which GI50 (A498 renal) does the source give for `CCNC(=O)O[C@H]1CN[C@H](C#Cc2cc3ncnc(Nc4ccc(OCc5cccc(F)c5)c(Cl)c4)c3s2)C1` here?
Answer: 1.7 µM

Question: And the TGI (A498 renal)?
Answer: 11.7 µM

Question: And the GI50 (EKVX NSCLC)?
Answer: 0.668 µM

Question: And the TGI (EKVX NSCLC)?
Answer: > 14.8 µM

Question: And the GI50 (HS 578T breast)?
Answer: 4.82 µM

Question: And the TGI (HS 578T breast)?
Answer: 24.6 µM

Question: And the GI50 (HT29 colon)?
Answer: 9.47 µM

Question: What about the TGI (HT29 colon) of the same compound?
Answer: > 25 µM

Question: What about the GI50 (LOX IMVI melanoma) of the same compound?
Answer: 8.12 µM

Question: What about the TGI (LOX IMVI melanoma) of the same compound?
Answer: > 25 µM

Question: And the GI50 (MALME-3M melanoma)?
Answer: 3.99 µM

Question: What about the TGI (MALME-3M melanoma) of the same compound?
Answer: 11.7 µM

Question: What about the GI50 (NCI-H23 lung) of the same compound?
Answer: 9.13 µM

Question: And the TGI (NCI-H23 lung)?
Answer: > 25 µM

Question: What about the GI50 (OVCAR-4 ovarian) of the same compound?
Answer: 9.94 µM

Question: And the TGI (OVCAR-4 ovarian)?
Answer: > 25 µM

Question: And the GI50 (SF-268 CNS)?
Answer: 6 µM

Question: What about the TGI (SF-268 CNS) of the same compound?
Answer: > 25 µM

Question: And the GI50 (SR leukemia)?
Answer: 6.99 µM

Question: What about the TGI (SR leukemia) of the same compound?
Answer: > 25 µM

Question: How did the GI50 (A498 renal) turn out when `O=C(OC[C@H]1O[C@H](OC(=O)c2cc(O)c(O)c(OC(=O)c3cc(O)c(O)c(O)c3)c2)[C@H](OC(=O)c2cc(O)c(O)c(OC(=O)c3cc(O)c(O)c(O)c3)c2)[C@@H](OC(=O)c2cc(O)c(O)c(OC(=O)c3cc(O)c(O)c(O)c3)c2)[C@@H]1OC(=O)c1cc(O)c(O)c(OC(=O)c2cc(O)c(O)c(O)c2)c1)c1cc(O)c(O)c(OC(=O)c2cc(O)c(O)c(O)c2)c1` was run?
Answer: > 25 µM

Question: What about the TGI (A498 renal) of the same compound?
Answer: > 25 µM

Question: And the GI50 (EKVX NSCLC)?
Answer: 5.2 µM

Question: What about the TGI (EKVX NSCLC) of the same compound?
Answer: > 25 µM

Question: What about the GI50 (HS 578T breast) of the same compound?
Answer: 10.3 µM

Question: And the TGI (HS 578T breast)?
Answer: > 25 µM

Question: And the GI50 (HT29 colon)?
Answer: 3.86 µM

Question: What about the TGI (HT29 colon) of the same compound?
Answer: 9.22 µM

Question: And the GI50 (LOX IMVI melanoma)?
Answer: 1.24 µM

Question: What about the TGI (LOX IMVI melanoma) of the same compound?
Answer: > 25 µM

Question: What about the GI50 (MALME-3M melanoma) of the same compound?
Answer: 7.42 µM

Question: And the TGI (MALME-3M melanoma)?
Answer: > 25 µM

Question: What about the GI50 (NCI-H23 lung) of the same compound?
Answer: 1.56 µM

Question: And the TGI (NCI-H23 lung)?
Answer: > 25 µM

Question: What about the GI50 (OVCAR-4 ovarian) of the same compound?
Answer: 4.67 µM

Question: What about the TGI (OVCAR-4 ovarian) of the same compound?
Answer: 18.3 µM

Question: And the GI50 (SF-268 CNS)?
Answer: 2.18 µM

Question: And the TGI (SF-268 CNS)?
Answer: > 25 µM

Question: And the GI50 (SR leukemia)?
Answer: 1.86 µM

Question: What about the TGI (SR leukemia) of the same compound?
Answer: > 25 µM

Question: `Cc1ncc(C(=O)Nc2ccc(CN3CCN(C)CC3)c(C(F)(F)F)c2)cc1C#Cc1cnc(N)cc1C#N` was tested. Which GI50 (A498 renal) did it give?
Answer: 0.24 µM

Question: And the TGI (A498 renal)?
Answer: 0.872 µM

Question: What about the GI50 (EKVX NSCLC) of the same compound?
Answer: 1.12 µM

Question: And the TGI (EKVX NSCLC)?
Answer: 3.38 µM

Question: And the GI50 (HS 578T breast)?
Answer: 0.204 µM

Question: What about the TGI (HS 578T breast) of the same compound?
Answer: 1.72 µM

Question: What about the GI50 (HT29 colon) of the same compound?
Answer: 0.0481 µM

Question: What about the TGI (HT29 colon) of the same compound?
Answer: 2.38 µM

Question: And the GI50 (LOX IMVI melanoma)?
Answer: 0.0709 µM

Question: And the TGI (LOX IMVI melanoma)?
Answer: 0.8 µM

Question: What about the GI50 (MALME-3M melanoma) of the same compound?
Answer: 0.0196 µM

Question: And the TGI (MALME-3M melanoma)?
Answer: 0.125 µM

Question: What about the GI50 (NCI-H23 lung) of the same compound?
Answer: 0.707 µM

Question: What about the TGI (NCI-H23 lung) of the same compound?
Answer: 3.21 µM

Question: What about the GI50 (OVCAR-4 ovarian) of the same compound?
Answer: 0.144 µM

Question: What about the TGI (OVCAR-4 ovarian) of the same compound?
Answer: 2.64 µM

Question: And the GI50 (SF-268 CNS)?
Answer: 0.605 µM

Question: And the TGI (SF-268 CNS)?
Answer: 3.33 µM

Question: What about the GI50 (SR leukemia) of the same compound?
Answer: 0.406 µM

Question: And the TGI (SR leukemia)?
Answer: 6.27 µM

Question: Which GI50 (A498 renal) does the source give for `Cc1cn(-c2cc(NC(=O)c3ccc(C)c(Nc4nccc(-c5cccnc5)n4)c3)cc(C(F)(F)F)c2)cn1` here?
Answer: > 10 µM and 4.09 µM

Question: What about the TGI (A498 renal) of the same compound?
Answer: > 10 µM and 12.1 µM

Question: And the GI50 (EKVX NSCLC)?
Answer: 6.23 µM and 5.98 µM

Question: And the TGI (EKVX NSCLC)?
Answer: > 10 µM and 26.1 µM

Question: And the GI50 (HS 578T breast)?
Answer: 5.73 µM and 2.52 µM

Question: What about the TGI (HS 578T breast) of the same compound?
Answer: > 10 µM and 6.8 µM

Question: And the GI50 (HT29 colon)?
Answer: 1.7 µM and 1.94 µM

Question: And the TGI (HT29 colon)?
Answer: > 10 µM and 9.13 µM

Question: And the GI50 (LOX IMVI melanoma)?
Answer: 2.77 µM and 5.57 µM

Question: And the TGI (LOX IMVI melanoma)?
Answer: > 10 µM and 26.5 µM

Question: And the GI50 (MALME-3M melanoma)?
Answer: 1.69 µM and 0.78 µM

Question: And the TGI (MALME-3M melanoma)?
Answer: 5.04 µM and 4.1 µM

Question: What about the GI50 (NCI-H23 lung) of the same compound?
Answer: 7.35 µM and 6.5 µM

Question: And the TGI (NCI-H23 lung)?
Answer: > 10 µM and 30 µM

Question: What about the GI50 (OVCAR-4 ovarian) of the same compound?
Answer: 5.15 µM and 2.39 µM

Question: What about the TGI (OVCAR-4 ovarian) of the same compound?
Answer: > 10 µM and 7.32 µM

Question: And the GI50 (SF-268 CNS)?
Answer: 5.78 µM and 3.45 µM

Question: What about the TGI (SF-268 CNS) of the same compound?
Answer: > 10 µM and 15.2 µM

Question: What about the GI50 (SR leukemia) of the same compound?
Answer: 3.06 µM and 2.67 µM

Question: And the TGI (SR leukemia)?
Answer: > 10 µM and 26.9 µM
